Paper PMC4596572, “Ligand Discovery for the Alanine-Serine-Cysteine Transporter (ASCT2, SLC1A5) from Homology Modeling and Virtual Screening” (PLoS Computational Biology, 2015)

Assays:
[1] = molecular target: T1, ASCT2 mediated glutamine uptake in C8161 melanoma cells (Homo sapiens, UniProt Q15758); test: [3H]-L-glutamine uptake assay in C8161 cells; type: cell-based; settings: 15 min, 37°C, n = 3
T1 construct: endogenous in cells; host or cells: C8161 human melanoma cell line
T1 sequence (Q15758 1-541): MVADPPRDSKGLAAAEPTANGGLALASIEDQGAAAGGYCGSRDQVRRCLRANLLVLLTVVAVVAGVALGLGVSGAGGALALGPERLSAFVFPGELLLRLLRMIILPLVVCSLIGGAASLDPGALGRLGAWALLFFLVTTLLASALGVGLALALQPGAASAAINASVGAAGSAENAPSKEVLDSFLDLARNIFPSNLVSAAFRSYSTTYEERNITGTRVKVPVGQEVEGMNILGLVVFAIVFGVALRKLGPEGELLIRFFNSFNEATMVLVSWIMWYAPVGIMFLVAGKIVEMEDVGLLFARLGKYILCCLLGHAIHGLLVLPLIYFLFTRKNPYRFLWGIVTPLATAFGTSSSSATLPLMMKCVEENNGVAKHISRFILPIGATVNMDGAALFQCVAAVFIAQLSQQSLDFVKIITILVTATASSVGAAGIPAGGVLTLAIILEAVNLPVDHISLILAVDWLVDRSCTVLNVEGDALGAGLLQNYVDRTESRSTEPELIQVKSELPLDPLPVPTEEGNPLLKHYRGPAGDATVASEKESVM
Protocol: We have previously shown that ASCT2 mediates glutamine uptake in C8161 human melanoma cells, and that blocking ASCT2 activity inhibits cell growth and viability (Methods). […] In the presence these compounds, [^3H]-L-glutamine uptake was decreased in a dose-dependent manner in C8161 cells, in agreement with their elicitation of current as activators and potential substrates (Fig 8A–8C).
Human melanoma cell line C8161 culture was performed as previously described. Media used was DMEM/F12 medium (Life Technologies) containing 5% (v/v) fetal bovine serum (FBS), penicillin-streptomycin solution (Sigma-Aldrich). Cells were maintained at 37°C in a fully humidified atmosphere containing 5% CO2. Inhibitors (chloroalanine, AOC and γ-FBP) were resuspended in H2O, with control cells treated with the appropriate concentrations of vehicle alone.
C8161 cells (1 × 10^5/well) were incubated with [^3H]-L-glutamine (400 nM; PerkinElmer) in MEM media (Life Technologies) for 15 min at 37°C in the presence or absence of each inhibitor. Cells were collected and transferred to filter paper using a 96-well plate harvester (Wallac PerkinElmer), dried, exposed to scintillation fluid and counts measured using a liquid scintillation counter (PerkinElmer).

[2] = tested on: C8161 human melanoma cells; test: Annexin V/propidium iodide apoptosis assay by flow cytometry; type: cell-based; settings: 5 mM, 48 hours
Protocol: Glutamine is a conditionally essential amino acid required for cancer cell growth, being used as fuel source for the TCA cycle, and a carbon and nitrogen source for macromolecule production. We therefore examined cell viability in the presence of chloroalanine (5 mM), AOC (5 mM) and γ-FBP (5 mM) using an MTT assay in C8161 cells (Methods).
Cells (5 × 10^5 per well) were seeded in 24 well plates, allowed to adhere overnight, and then incubated in the presence of 5 mM chloroalanine, AOC or γ-FBP for 48 hours. Cells were detached using Tryple and resuspended in 300 μL of binding buffer (HEPES-buffered PBS supplemented with 2.5 mM calcium chloride) with Annexin V-APC (BD) and incubated for 15 min in the dark at room temperature. Propidium iodide solution (5 μg/mL) was added, and the cells were analyzed using the BD LSRFortessa and FlowJo software.

| Structure (SMILES) | IC50 [1] [mM] | Apoptosis (early Annexin V+PI-, late Annexin V+PI+) [2] |
| --- | --- | --- |
| NC1(C(=O)O)COC1 | 10 to 15 | neither AOC nor γ-FBP led to a significant increase |
| NC(CCl)C(=O)O (stereo not drawn) [Chloroalanine] | 9.2 | significantly increased apoptosis |
| O=C(O)C1CC(Cc2ccccc2F)CN1 (stereo not drawn) [γ-FBP] | 10 to 15 | neither AOC nor γ-FBP led to a significant increase |
